Literature values as cited in patent publication US11220530B2, “Nanospheres of SEC14-like proteins and cognate ligands” (UNIVERSITÄT BERN, priority 2016, dated 2022).
pKd: −log10 of the molar value.

Target: Cellular retinaldehyde-binding protein (CRALBP) (Bos taurus, UniProt P10123)
Conditions: for pKd: cited from Saari and Bredberg, J Biol Chem 1987, read-out: Kd (affinity for CRALBP)

Cellular retinaldehyde-binding protein (CRALBP), sequence (P10123 whole entry): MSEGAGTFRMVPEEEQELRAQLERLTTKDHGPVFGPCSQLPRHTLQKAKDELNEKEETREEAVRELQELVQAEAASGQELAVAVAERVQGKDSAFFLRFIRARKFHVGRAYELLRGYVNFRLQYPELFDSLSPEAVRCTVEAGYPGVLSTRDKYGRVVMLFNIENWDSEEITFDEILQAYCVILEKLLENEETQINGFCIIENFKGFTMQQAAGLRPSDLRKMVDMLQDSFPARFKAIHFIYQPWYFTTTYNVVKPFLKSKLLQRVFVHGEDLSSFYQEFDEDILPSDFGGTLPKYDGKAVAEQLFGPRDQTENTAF

| SMILES | pKd | binding to CRALBP (same cited study) |
| --- | --- | --- |
| CC1=C(/C=C/C(C)=C/C=C\C(C)=C\CO)C(C)(C)CCC1 [11-cis-retinol] | 7.22 |  |
| CC1=C(/C=C/C(C)=C/C=C/C(C)=C/C=O)C(C)(C)CCC1 [11-cis-retinal] | 7.70 |  |
| CC1=C(/C=C/C(C)=C/C=C/C(C)=C/C=O)C(C)(C)CCC1 [13-cis] |  | does not bind |
| CC1=C(/C=C/C(C)=C\C=C\C(C)=C\C=O)C(C)(C)CCC1 [9-cis-retinal] | 7.28 |  |
